Laboratory results taken from patent publication US20100234463A1, “Method for Identifying Modulators of Gamma Secretase or Notch” (priority 2005, published 2010).

Key:
Notch = test: NICD nuclear translocation high content screening assay (ArrayScan); type: cell-based, human
Procedure: (§1) Human embryonic kidney (HEK) 293 cells stably over-expressing β-amyloid precursor protein (βAPP695) and c-myc-tagged NotchΔE (M1727V) have been previously described (Beher, D. et al., J. Biol Chem. 276: 45394-45402, (2001)). Cells were routinely maintained in Dulbecco's modified Eagle's medium (DMEM) supplemented with 10% (v/v) fetal calf serum (FCS, Invitrogen™, Carlsbad, Calif.), 1 μg/ml puromycin (Sigma-Aldrich, St. Louis, Mo.) to maintain βAPP expression and 100 μg/ml zeocin (Life Technologies, Inc., Rockville, Md.) to select for NotchΔE expression. Cells were passaged on a weekly basis using 1:10 split ratio.
(§2) On the day of the assay, media was removed and cells washed with phosphate-buffered saline (PBS, Sigma-Aldrich, St. Louis, Mo.), followed by incubation with 1.5 ml Accutase (PAA Laboratories GmbH, Pasching, Austria) at 37° C. for 10 minutes to detach cells. DMEM supplemented with 10% (v/v) FCS was added and the cell suspension centrifuged for 5 minutes at 1120 prm. […] A further 9 ml DMEM supplemented with 0.4% (v/v) FCS was added and cells counted.
(§3) Cells were plated in poly-d-lysine coated 96-well plates (Becton Dickinson, Fullerton, Calif.) at 10,000 cells/well in DMEM supplemented with 0.4% (v/v) FCS (Invitrogen™, Carlsbad, Calif.). […] Cell conditioned media was removed for quantification of Aβ peptides and the cell monolayer fixed by incubating with 3.7% (v/v) formaldehyde (Sigma-Aldrich, St. Louis, Mo.) in PBS at room temperature for fifteen minutes.
Cells were washed with PBS (three times, five minutes each) and incubated with 0.1% Triton-X in PBS for 90 seconds at room temperature. […] After washing with PBS (three times, five minutes each), the plates were sealed and transferred to a Cellomics™ ArrayScan® 4.0 (Cellomics Inc, Pittsburgh, Pa.) for quantification of NICD translocation.
Automated image capture and quantification of NICD nuclear translocation was performed using a Cellomics™ ArrayScan® 4.0 and the Cytoplasm to Nucleus Translocation BioApplication software (Cellomics, Pittsburgh, Pa.). […]

Aβ40 = test: Quantification of Aβ40 in cell-conditioned media by ECL; type: cell-based, human; conditions: 24 hours
Procedure: as §1, §2, §3
Aβ peptides secreted into the media were quantified using an electrochemiluminescence (ECL) assay in a 96-well plate format (Sector HTS™ analyzer, Meso Scale Discovery® a division of Meso Scale Diagnostics™, LLC (MSD™), Gaithersburg, Md.). […] Plates were washed with PBS (three times, five minutes each) and media replaced with 150 μl Read buffer S (Meso Scale Discovery®) prior to detecting Aβ40 and Aβ42 using the Sector HTS™ Analyzer. […]
Mean values for vehicle control and compound C treated cells were calculated. […] Percent control values were calculated using the following formula: […]

γ-secretase = conditions: reported; cited from earlier work
Aβ42 [1] = conditions: cited from earlier work
Aβ42 [2] = test: Quantification of Aβ42 in cell-conditioned media by ECL; type: cell-based, human; conditions: 24 hours
Procedure: as §1
as §2, with “cells.” for “cells. DMEM supplemented with 10% (v/v) FCS was added and the cell suspension centrifuged for 5 minutes at 1120 prm.”
as §3, with “minutes. […]” for “minutes.”

Row | SMILES | inhibition of NICD nuclear translocation over time (Notch; 10 μM, up to twenty four hours) | effect on Aβ40 levels (Aβ40; increasing concentrations) | potency for inhibition of Aβ40 versus Aβ42 peptides (γ-secretase) | reported effect on Aβ42 (Aβ42 [1]) | IC50 (Aβ42 [2]; HEK293 βAPP695 NotchΔE cells) [µM] | effect on Aβ42 peptide levels (Aβ42 [2]; increasing concentrations) | concentrations with no effect on NICD nuclear translocation (Notch; 24 hours) | IC50 (Notch; NICD nuclear translocation, 24 hours) [µM] | concentrations at which Aβ40 peptide generation was inhibited (Aβ40) [µM] | IC50 (Aβ40; HEK293 βAPP695 NotchΔE cells) [µM]
1 | CC(C)C[C@H](NC(=O)[C@H](Cc1ccccc1)C[C@@H](O)[C@H](Cc1ccccc1)NC(=O)OC(C)(C)C)C(=O)N[C@@H](Cc1ccccc1)C(N)=O [C] | Time-dependant inhibition | declined | equivalent potency |  |  |  |  |  |  | 
2 | C[C@@H](C(=O)O)c1ccc(-c2ccccc2)c(F)c1 [Compound F] |  |  |  | preferentially inhibit Aβ42 | 9.24 | selectively reduced | up to 1000 μM | > 1000 | ≥ 30 | > 1000
